Assay results reported in patent publication US20210024507A1, “Compounds” (Step Pharma S.A.S., priority 2018, published 2021).

Tested on: human CTPS1
Test: RapidFire/MS-based enzyme selectivity assay, human CTPS1
Assay type: biochemical
Details: calculated from the CTPS1 and CTPS2 IC50 values
Description: The enzyme inhibitory activities against each target isoform of interest may be determined for the compounds of the invention using an optimised RapidFire high-throughput mass spectrometry (RF/MS) assay format. RF/MS assays for both human CTPS1 and CTPS2 may be performed in assay buffer consisting of 50mM HEPES (Merck), 20mM MgCl2, 5mM KCI, 1mM DTT, 0.01% Tween-20, pH to 8.0 accordingly. Human full-length active C-terminal FLAG-His-tag CTPS1 (UniProtKB - P17812, CTPS[1-591]-[…]) may be obtained from Proteros biostructures GmbH. Human full length active C-terminal FLAG-His-Avi tagged CTPS2 (UniProtKB-Q9NRF8, CTPS2 [1-586]- […]) may be obtained from Harker Bio.
Human CTPS (1 or 2) protein may be prepared in lx assay buffer to the final working protein concentration required for the reaction. A 2uL volume per well of 2× CTPS (1 or 2) protein may be mixed with 40nL of compound using acoustic (ECHO) delivery and incubated for 10 minutes at 25° C. Each isoform enzymatic reaction may be subsequently initiated by addition of 2uL per well of a 2× substrate mix in assay buffer. For hCTPS1: ATP (0.3mM), UTP (0.2mM), GTP (0.07mM) and L-glutamine (0.1mM). For hCTPS2: ATP (0.1mM), UTP (0.04mM), GTP (0.03mM) and L-glutamine (0.1mM). Each mixture may be incubated for an appropriate amount of time per isoform within the determined linear phase of the reaction at 25° C. A 60uL volume of stop solution (1% formic acid with 0.5uM ^13C9-^15N3-CTP in H2O) may be added and the plate immediately heat-sealed and centrifuged for 10 minutes at 4,000rpm. Following centrifugation, plates may be loaded onto the Agilent RapidFire microfluidic solid phase extraction system coupled to an AP14000 triple quadrupole mass spectrometer (RF/MS) for analysis.
In all cases, the enzyme converts UTP to CTP. Highly specific and sensitive multiple reaction monitoring (MRM) MS methods may be optimised for the detection of the enzymatic reaction product, CTP, and the stable isotope labelled product standard ^13C9-^15N3-CTP. Readout for data analysis may be calculated as the ratio between the peak area of the product CTP and the internal standard ^13C9-^15N3-CTP. For data reporting, the following equation may be used:
[formula] (R=ratio/readout, P=product signal area, IS=internal standard signal area)
For each screening plate, the means of the negative (DMSO) and positive control values were used for the calculation of the respective assay window (S/B) and Z′ values. The median of the respective control values was used for calculation of percent inhibition according to the following equation:
[formula] (I=Inhibition, Rneg=median of negative control readout values, Rpos=median of positive control readout values, Rsample=sample readout value)
Percentage inhibition was then plotted against compound concentration, and the 50% inhibitory concentration (IC50) was determined from the resultant concentration-response curve.
Fold selectivity between CTPS1 and CTPS2 was subsequently calculated according to the following equation: […]

With `CCOc1cncc(-c2ccc(NC(=O)C(F)(CC)c3ccnc(NS(C)(=O)=O)n3)nc2)n1` (stereo not drawn) [P151, N-(5-(6-ethoxypyrazin-2-yl)pyridin-2-yl)-2-fluoro-2-(2-(methylsulfonamido)pyrimidin-4-yl)butanamide] the “Selectivity (fold selectivity between CTPS1 and CTPS2)” value was “+++ (>60 fold (+++))”.
`CCOc1cncc(-c2ccc(NC(=O)Cc3ccnc(NS(=O)(=O)C4CC4)n3)cc2)n1` [P18, 2-(2-(cyclopropanesulfonamido)pyrimidin-4-yl)-N-(4-(6-ethoxypyrazin-2-yl)phenyl)acetamide] was tested, and the “Selectivity (fold selectivity between CTPS1 and CTPS2)” value was “++ (>30-60 fold (++))”.
For `CC(C)Oc1cncc(-c2ccc(NC(=O)Cc3ccnc(NS(=O)(=O)C4CC4)n3)cc2)n1` [P21, 2-(2-(cyclopropanesulfonamido)pyrimidin-4-yl)-N-(4-(6-isopropoxypyrazin-2-yl)phenyl)acetamide], the “Selectivity (fold selectivity between CTPS1 and CTPS2)” value was “++ (>30-60 fold (++))”.
`CCOc1cncc(-c2ccc(NC(=O)C(C)(C)c3ccnc(NS(=O)(=O)C4CC4)n3)c(F)c2)n1` [P38, 2-(2-(cyclopropanesulfonamido)pyrimidin-4-yl)-N-(4-(6-ethoxypyrazin-2-yl)-2-fluorophenyl)-2-methylpropanamide] was tested, and the “Selectivity (fold selectivity between CTPS1 and CTPS2)” value was “+ (2-30 fold (+))”.
`CC(C)(C(=O)Nc1ccc(-c2cccnc2)cc1)c1ccnc(NS(=O)(=O)C2CC2)n1` [P59, 2-(2-(cyclopropanesulfonamido)pyrimidin-4-yl)-2-methyl-N-(4-(pyridin-3-yl)phenyl)propanamide] was tested, and the “Selectivity (fold selectivity between CTPS1 and CTPS2)” value was “+ (2-30 fold (+))”.
With `CCOc1cncc(-c2ccc(NC(=O)C3(c4ccnc(NS(=O)(=O)C5CC5)n4)CCOCC3)nc2)n1` [P115, 4-(2-(cyclopropanesulfonamido)pyrimidin-4-yl)-N-(5-(6-ethoxypyrazin-2-yl)pyridin-2-yl)tetrahydro-2H-pyran-4-carboxamide] the “Selectivity (fold selectivity between CTPS1 and CTPS2)” value was “+++ (>60 fold (+++))”.
With `CCOc1cncc(-c2ccc(NC(=O)C(CCOC)c3ccnc(NS(=O)(=O)C4CC4)n3)nc2)n1` (stereo not drawn) [P145, 2-(2-(cyclopropanesulfonamido)pyrimidin-4-yl)-N-(5-(6-ethoxypyrazin-2-yl)pyridin-2-yl)-4-methoxybutanamide] the “Selectivity (fold selectivity between CTPS1 and CTPS2)” value was “+++ (>60 fold (+++))”.
`CCOc1cncc(-c2ccc(NC(=O)C(C)(C)c3ccnc(NS(=O)(=O)C4CC4)n3)c(C#N)c2)n1` [P34, N-(2-cyano-4-(6-ethoxypyrazin-2-yl)phenyl)-2-(2-(cyclopropanesulfonamido)pyrimidin-4-yl)-2-methylpropanamide] was tested, and the “Selectivity (fold selectivity between CTPS1 and CTPS2)” value was “+ (2-30 fold (+))”.
With `O=C(Cc1ccnc(NS(=O)(=O)C2CC2)n1)Nc1ccc(-c2cccnc2)cc1` [P16, 2-(2-(cyclopropanesulfonamido)pyrimidin-4-yl)-N-(4-(pyridin-3-yl)phenyl)acetamide] the “Selectivity (fold selectivity between CTPS1 and CTPS2)” value was “++ (>30-60 fold (++))”.
For `CC(C)Oc1cncc(-c2ccc(NC(=O)C(C)(C)c3ccnc(NS(=O)(=O)C4CC4)n3)c(F)c2)n1` [P39, 2-(2-(cyclopropanesulfonamido)pyrimidin-4-yl)-N-(2-fluoro-4-(6-isopropoxypyrazin-2-yl)phenyl)-2-methylpropanamide], the “Selectivity (fold selectivity between CTPS1 and CTPS2)” value was “+ (2-30 fold (+))”.
`CCOc1cncc(-c2ccc(NC(=O)C(OC)c3ccnc(NS(=O)(=O)C4CC4)n3)cc2)n1` (stereo not drawn) [P164, 2-(2-(cyclopropanesulfonamido)pyrimidin-4-yl)-N-(4-(6-ethoxypyrazin-2-yl)phenyl)-2-methoxyacetamide] was tested, and the “Selectivity (fold selectivity between CTPS1 and CTPS2)” value was “+ (2-30 fold (+))”.
`CCOc1cncc(-c2ccc(NC(=O)C(C)(C)c3nc(NS(=O)(=O)C4CC4)ncc3F)cc2)n1` [P68, 2-(2-(cyclopropanesulfonamido)-5-fluoropyrimidin-4-yl)-N-(4-(6-ethoxypyrazin-2-yl)phenyl)-2-methylpropanamide] was tested, and the “Selectivity (fold selectivity between CTPS1 and CTPS2)” value was “++ (>30-60 fold (++))”.
In the case of `CC(C)(NC(=O)c1ccc(-c2cncc(C(F)(F)F)n2)cc1)c1cncc(NS(=O)(=O)C2CC2)n1` [P222, N-(2-(6-(cyclopropanesulfonamido)pyrazin-2-yl)propan-2-yl)-4-(6-(trifluoromethyl)pyrazin-2-yl)benzamide], the “Selectivity (fold selectivity between CTPS1 and CTPS2)” value is reported as “+ (2-30 fold (+))”.
In the case of `CC(C)(C(=O)Nc1ccc(-c2cncc(C3CC3)n2)cn1)c1ccnc(NS(=O)(=O)C2CC2)n1` [P125, 2-(2-(cyclopropanesulfonamido)pyrimidin-4-yl)-N-(5-(6-cyclopropylpyrazin-2-yl)pyridin-2-yl)-2-methylpropanamide], the “Selectivity (fold selectivity between CTPS1 and CTPS2)” value is reported as “++ (>30-60 fold (++))”.
`CCOc1cncc(-c2ccc(C(=O)NCc3ccnc(NS(=O)(=O)C4CC4)n3)cc2)n1` [P118, N-((2-(cyclopropanesulfonamido)pyrimidin-4-yl)methyl)-4-(6-ethoxypyrazin-2-yl)benzamide] was tested, and the “Selectivity (fold selectivity between CTPS1 and CTPS2)” value was “+++ (>60 fold (+++))”.
In the case of `CCOc1cncc(-c2ccc(NC(=O)C(C)(OC)c3cncc(NS(=O)(=O)C4CC4)n3)nc2)n1` (single isomer, unassigned) [P205b, 2-(6-(cyclopropanesulfonamido)pyrazin-2-yl)-N-(5-(6-ethoxypyrazin-2-yl)pyridin-2-yl)-2-methoxypropanamide], the “Selectivity (fold selectivity between CTPS1 and CTPS2)” value is reported as “++ (>30-60 fold (++))”.
`CCOc1cncc(-c2ccc(NC(=O)C(CCOC)c3ccnc(NS(=O)(=O)C4CC4)n3)c(F)c2)n1` (stereo not drawn) [P146, 2-(2-(cyclopropanesulfonamido)pyrimidin-4-yl)-N-(4-(6-ethoxypyrazin-2-yl)-2-fluorophenyl)-4-methoxybutanamide] was tested, and the “Selectivity (fold selectivity between CTPS1 and CTPS2)” value was “+++ (>60 fold (+++))”.
For `CCOc1cncc(-c2ccc(NC(=O)C(C)(C)c3cncc(NS(=O)(=O)C4CC4)n3)nc2)n1` [P195, 2-(6-(cyclopropanesulfonamido)pyrazin-2-yl)-N-(5-(6-ethoxypyrazin-2-yl)pyridin-2-yl)-2-methylpropanamide], the “Selectivity (fold selectivity between CTPS1 and CTPS2)” value was “+++ (>60 fold (+++))”.
With `CC(C)Oc1cncc(-c2ccc(C(=O)NC(C)(C)c3cncc(NS(=O)(=O)C4CC4)n3)c(F)c2)n1` [P221, N-(2-(6-(cyclopropanesulfonamido)pyrazin-2-yl)propan-2-yl)-2-fluoro-4-(6-isopropoxypyrazin-2-yl)benzamide] the “Selectivity (fold selectivity between CTPS1 and CTPS2)” value was “+ (2-30 fold (+))”.
In the case of `CCOc1cncc(-c2ccc(NC(=O)C3(c4cncc(NS(=O)(=O)C5CC5)n4)CCOCC3)nc2)n1` [P197, 4-(6-(cyclopropanesulfonamido)pyrazin-2-yl)-N-(5-(6-ethoxypyrazin-2-yl)pyridin-2-yl)tetrahydro-2H-pyran-4-carboxamide], the “Selectivity (fold selectivity between CTPS1 and CTPS2)” value is reported as “+++ (>60 fold (+++))”.
`CCOc1cncc(-c2ccc(NC(=O)C(C)(C)c3ccnc(NS(=O)(=O)CC)n3)cc2)n1` [P74, N-(4-(6-ethoxypyrazin-2-yl)phenyl)-2-(2-(ethylsulfonamido)pyrimidin-4-yl)-2-methylpropanamide] was tested, and the “Selectivity (fold selectivity between CTPS1 and CTPS2)” value was “++ (>30-60 fold (++))”.
In the case of `CCOc1cncc(-c2ccc(NC(=O)C3(c4ccnc(NS(=O)(=O)C5CC5)n4)CCOCC3)c(F)c2)n1` [P143, 4-(2-(cyclopropanesulfonamido)pyrimidin-4-yl)-N-(4-(6-ethoxypyrazin-2-yl)-2-fluorophenyl)tetrahydro-2H-pyran-4-carboxamide], the “Selectivity (fold selectivity between CTPS1 and CTPS2)” value is reported as “+++ (>60 fold (+++))”.
In the case of `CCOc1cncc(-c2ccc(NC(=O)C(C)(C)c3ccnc(NS(=O)(=O)C4CC4)n3)cc2)n1` [P65, 2-(2-(cyclopropanesulfonamido)pyrimidin-4-yl)-N-(4-(6-ethoxypyrazin-2-yl)phenyl)-2-methylpropanamide], the “Selectivity (fold selectivity between CTPS1 and CTPS2)” value is reported as “++ (>30-60 fold (++))”.
With `CC(C)Oc1cncc(-c2ccc(NC(=O)C(C)(C)c3ccnc(NS(=O)(=O)C4CC4)n3)nc2)n1` [P9, 2-(2-(cyclopropanesulfonamido)pyrimidin-4-yl)-N-(5-(6-isopropoxypyrazin-2-yl)pyridin-2-yl)-2-methylpropanamide] the “Selectivity (fold selectivity between CTPS1 and CTPS2)” value was “+++ (>60 fold (+++))”.
